Where “and” joins values, the source holds several entries; their conditions need not be identical. Equal values may be shown once. Inconclusive results and toxic doses are left out. Rule as the data show it: active = T/C of 150% or more; inactive = T/C below 125%. Square brackets hold non-standard residues; d marks the D form. Peptide text beside a SMILES is read from it. ξ: configuration not given here. ξD = NC(CC(=O)O)C(=O)O
Test system: L1210 leukemia ip in BDF1 mice, survival T/C
Assay: NCI In Vivo Anticancer Drug Screen. Data for tumor model L1210 Leukemia (intraperitoneal) in B6D2F1 (BDF1) mice
Conditions: endpoint: mean survival time, higher = longer survival
Method in brief: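 Value reflects the ratio of survival in compound-treated mice to survival in vehicle-treated controls, with both groups carrying the same transplanted tumor.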

[1] = dose: 100.0 mg/kg/injection, schedule: Q04DX002 (ip), vehicle: Klucel (hydroxypropylcellulose) (HPC)
[2] = dose: 25.0 mg/kg/injection, schedule: Q01DX009 (ip), vehicle: saline
[3] = dose: 50.0 mg/kg/injection, schedule: Q01DX009 (ip), vehicle: saline
[4] = dose: 100.0 mg/kg/injection, schedule: Q01DX009 (ip), vehicle: saline with Tween-80
[5] = dose: 100.0 mg/kg/injection, schedule: Q01DX001 (ip), vehicle: saline
[6] = dose: 200.0 mg/kg/injection, schedule: Q01DX001 (ip), vehicle: saline
[7] = dose: 100.0 mg/kg/injection, schedule: Q01DX009 (ip), vehicle: saline
[8] = dose: 100.0 mg/kg/injection, schedule: Q04DX003 (ip), vehicle: saline
[9] = dose: 100.0 mg/kg/injection, schedule: Q01DX001 (ip), vehicle: carboxymethylcellulose (CMC)
[10] = dose: 200.0 mg/kg/injection, schedule: Q01DX001 (ip), vehicle: carboxymethylcellulose (CMC)
[11] = dose: 400.0 mg/kg/injection, schedule: Q01DX001 (ip), vehicle: carboxymethylcellulose (CMC)

Measured: T/C

COC1OC(CCl)C(OC(C)=O)C(OC(C)=O)C1OS(C)(=O)=O (stereo not given)
inactive: [1] 91 % of control | dose: 200.0 mg/kg/injection, schedule: Q04DX002 (ip), vehicle: Klucel (hydroxypropylcellulose) (HPC) 91 % of control | dose: 400.0 mg/kg/injection, schedule: Q04DX002 (ip), vehicle: Klucel (hydroxypropylcellulose) (HPC) 97 % of control

O=CC(=O)c1ccccc1
inactive: dose: 25.0 mg/kg/injection, schedule: Q01DX009 (ip), vehicle: saline with Tween-80 100 % of control | [2] 101 % of control | dose: 50.0 mg/kg/injection, schedule: Q01DX009 (ip), vehicle: saline with Tween-80 105 % of control | [3] 104 % of control | dose: 75.0 mg/kg/injection, schedule: Q01DX009 (ip), vehicle: saline with Tween-80 98 % of control | [4] 107 % of control

Cc1cc(C)[n+]([O-])c(C)c1[N+](=O)[O-]
inactive: [5] 101 % of control | [6] 101 % of control

CCOC(=O)/C=C(\CC(=O)OCC)Nc1ccc(OC)cc1
inactive: [3] 89 % of control | [7] 91 % of control | dose: 100.0 mg/kg/injection, schedule: Q04DX003 (ip), vehicle: acetone 91 % of control | dose: 200.0 mg/kg/injection, schedule: Q04DX003 (ip), vehicle: acetone 100 % of control | dose: 400.0 mg/kg/injection, schedule: Q04DX003 (ip), vehicle: acetone 97 % of control

CCCCCCOc1ccc(/C=N\N=C\c2ccc(OCCCCCC)cc2)cc1
inactive: [4] 92 % of control | dose: 200.0 mg/kg/injection, schedule: Q01DX009 (ip), vehicle: saline with Tween-80 89 % of control | dose: 400.0 mg/kg/injection, schedule: Q01DX009 (ip), vehicle: saline with Tween-80 91 % of control

O=c1ncccn1Cc1ccccc1
inactive: dose: 100.0 mg/kg/injection, schedule: Q01DX001 (ip), vehicle: Klucel (hydroxypropylcellulose) (HPC) 112 % of control | dose: 200.0 mg/kg/injection, schedule: Q01DX001 (ip), vehicle: Klucel (hydroxypropylcellulose) (HPC) 98 % of control | dose: 400.0 mg/kg/injection, schedule: Q01DX001 (ip), vehicle: Klucel (hydroxypropylcellulose) (HPC) 107 % of control

C(=N\Nc1nc2ccccc2s1)/c1ccncc1
inactive: dose: 100.0 mg/kg/injection, schedule: Q01DX009 (ip), vehicle: Klucel (hydroxypropylcellulose) (HPC) 106 % of control | dose: 200.0 mg/kg/injection, schedule: Q01DX009 (ip), vehicle: Klucel (hydroxypropylcellulose) (HPC) 96 % of control | dose: 400.0 mg/kg/injection, schedule: Q01DX009 (ip), vehicle: Klucel (hydroxypropylcellulose) (HPC) 98 % of control

CCN(CC)CC(O)c1ccccc1 (stereo not given)
inactive: [2] 100 % of control | dose: 25.0 mg/kg/injection, schedule: Q04DX003 (ip), vehicle: saline 98 % of control | [3] 98 % of control | dose: 50.0 mg/kg/injection, schedule: Q04DX003 (ip), vehicle: saline 93 % of control | [8] 100 % of control

CNC(=O)Nc1cccc2ccccc12
inactive: [9] 95 % of control | dose: 100.0 mg/kg/injection, schedule: Q01DX009 (ip), vehicle: carboxymethylcellulose (CMC) 93 % of control and 89 % of control | dose: 100.0 mg/kg/injection, schedule: Q04DX002 (ip), vehicle: carboxymethylcellulose (CMC) 106 % of control | dose: 100.0 mg/kg/injection, schedule: Q04DX003 (ip), vehicle: carboxymethylcellulose (CMC) 97 % of control | [10] 101 % of control | dose: 200.0 mg/kg/injection, schedule: Q01DX009 (ip), vehicle: carboxymethylcellulose (CMC) 98 % of control and 101 % of control | dose: 200.0 mg/kg/injection, schedule: Q04DX002 (ip), vehicle: carboxymethylcellulose (CMC) 100 % of control | dose: 200.0 mg/kg/injection, schedule: Q04DX003 (ip), vehicle: carboxymethylcellulose (CMC) 96 % of control | [11] 97 % of control | dose: 400.0 mg/kg/injection, schedule: Q01DX009 (ip), vehicle: carboxymethylcellulose (CMC) 93 % of control and 86 % of control | dose: 400.0 mg/kg/injection, schedule: Q04DX002 (ip), vehicle: carboxymethylcellulose (CMC) 99 % of control | dose: 400.0 mg/kg/injection, schedule: Q04DX003 (ip), vehicle: carboxymethylcellulose (CMC) 97 % of control

COC1(c2ccc(Br)cc2)OC1(C)C (stereo not given)
inactive: dose: 25.0 mg/kg/injection, schedule: Q01DX009 (ip), vehicle: water 95 % of control | dose: 50.0 mg/kg/injection, schedule: Q01DX009 (ip), vehicle: water 101 % of control | dose: 100.0 mg/kg/injection, schedule: Q01DX009 (ip), vehicle: water 106 % of control | dose: 200.0 mg/kg/injection, schedule: Q01DX009 (ip), vehicle: water 107 % of control | dose: 400.0 mg/kg/injection, schedule: Q01DX009 (ip), vehicle: water 101 % of control

COc1ccc(C(=O)c2ccn[nH]2)cc1
inactive: dose: 75.0 mg/kg/injection, schedule: Q04DX003 (ip), vehicle: Klucel (hydroxypropylcellulose) (HPC) 97 % of control | dose: 150.0 mg/kg/injection, schedule: Q04DX003 (ip), vehicle: Klucel (hydroxypropylcellulose) (HPC) 100 % of control | dose: 300.0 mg/kg/injection, schedule: Q04DX003 (ip), vehicle: Klucel (hydroxypropylcellulose) (HPC) 99 % of control

CCC(N)C(=O)O (stereo not given)
inactive: [5] 108 % of control | [6] 102 % of control | dose: 400.0 mg/kg/injection, schedule: Q01DX001 (ip), vehicle: saline 94 % of control

CCOC(=O)c1nc(SC)n(Cc2ccccc2)c1C(=O)OCC
inactive: dose: 25.0 mg/kg/injection, schedule: Q04DX002 (ip), vehicle: saline with Tween-80 94 % of control and 103 % of control | dose: 50.0 mg/kg/injection, schedule: Q04DX002 (ip), vehicle: saline with Tween-80 106 % of control and 91 % of control | dose: 100.0 mg/kg/injection, schedule: Q01DX001 (ip), vehicle: saline with Tween-80 95 % of control and 98 % of control | dose: 100.0 mg/kg/injection, schedule: Q04DX003 (ip), vehicle: saline with Tween-80 99 % of control | dose: 200.0 mg/kg/injection, schedule: Q01DX001 (ip), vehicle: saline with Tween-80 102 % of control and 91 % of control | dose: 200.0 mg/kg/injection, schedule: Q04DX003 (ip), vehicle: saline with Tween-80 100 % of control | dose: 400.0 mg/kg/injection, schedule: Q01DX001 (ip), vehicle: saline with Tween-80 95 % of control and 91 % of control | dose: 400.0 mg/kg/injection, schedule: Q04DX002 (ip), vehicle: saline with Tween-80 94 % of control and 101 % of control | dose: 400.0 mg/kg/injection, schedule: Q04DX003 (ip), vehicle: saline with Tween-80 99 % of control

S=C(S)N1CCN(C(=S)S)CC1
inactive: [2] 108 % of control | [3] 103 % of control | [7] 92 % of control and 102 % of control | [8] 99 % of control | dose: 200.0 mg/kg/injection, schedule: Q04DX003 (ip), vehicle: saline 97 % of control

Cc1cc([N+](=O)[O-])cc(C)c1N
inactive: dose: 50.0 mg/kg/injection, schedule: Q01DX001 (ip), vehicle: carboxymethylcellulose (CMC) 100 % of control | [9] 102 % of control | [10] 100 % of control | [11] 110 % of control

NC(CC(=O)O)C(=O)NCC(=O)O (stereo not given) (H-[ξD]-Gly-OH)
inactive: dose: 12.5 mg/kg/injection, schedule: Q04DX002 (ip), vehicle: Klucel (hydroxypropylcellulose) (HPC) 98 % of control | dose: 25.0 mg/kg/injection, schedule: Q04DX002 (ip), vehicle: Klucel (hydroxypropylcellulose) (HPC) 94 % of control | dose: 50.0 mg/kg/injection, schedule: Q04DX002 (ip), vehicle: Klucel (hydroxypropylcellulose) (HPC) 94 % of control | [1] 117 % of control
